# Reference: patent publication US9873709B2 (priority 2013, dated 2018)
# Test system: JAK1-dependent STAT6 phosphorylation downstream of IL-13 stimulation in TF-1 human erythroleukemia cells
# Assay: cells
# Settings: TF-1, read-out: IL-13-pSTAT6 IC50
row,IC50,SMILES
1,1260 nM,"CN1CCC(N(C)C(=O)c2ccc(Nc3nc4c(C5=CCN(C(=O)N6CCOCC6)CC5)cccn4n3)cc2)CC1 [Example 2-413, N-methyl-N-(1-methyl-4-piperidyl)-4-[[8-[1-(morpholine-4-carbonyl)-3,6-dihydro-2H-pyridin-4-yl]-[1,2,4]triazolo[1,5-a]pyridin-2-yl]amino]benzamide]"
2,13 nM,"CCOC(=O)N1CC=C(c2cccn3nc(Nc4ccc(C(=O)NCC5CCCCN5C)cc4)nc23)CC1 (stereo not shown) [Example 2-415, ethyl 4-[2-[4-[(1-methyl-2-piperidyl)methylcarbamoyl]anilino]-[1,2,4]triazolo[1,5-a]pyridin-8-yl]-3,6-dihydro-2H-pyridine-1-carboxylate]"
3,598 nM,"CCOC(=O)N1CC=C(c2cccn3nc(Nc4ccc(C(=O)NCCC5CCCNC5)cc4)nc23)CC1 (stereo not shown) [Example 2-416, ethyl 4-[2-[4-[2-(3-piperidyl)ethylcarbamoyl]anilino]-[1,2,4]triazolo[1,5-a]pyridin-8-yl]-3,6-dihydro-2H-pyridine-1-carboxylate]"
4,24.1 nM,"CCOC(=O)N1CC=C(c2cccn3nc(Nc4ccc(C(=O)N5CC(C(=O)N6CCN(C)CC6)C5)cc4)nc23)CC1 [Example 2-421, ethyl 4-[2-[4-[3-(4-methylpiperazine-1-carbonyl)azetidine-1-carbonyl]anilino]-[1,2,4]triazolo[1,5-a]pyridin-8-yl]-3,6-dihydro-2H-pyridine-1-carboxylate]"
5,14 nM,"CCOC(=O)N1CC=C(c2cccn3nc(Nc4ccc(C(=O)NCCc5cccnc5)cc4)nc23)CC1 [Example 2-422, ethyl 4-[2-[4-[2-(3-pyridyl)ethylcarbamoyl]anilino]-[1,2,4]triazolo[1,5-a]pyridin-8-yl]-3,6-dihydro-2H-pyridine-1-carboxylate]"
6,17.3 nM,"CCOC(=O)N1CC=C(c2cccn3nc(Nc4ccc(C(=O)NCCc5ccccn5)cc4)nc23)CC1 [Example 2-423, ethyl 4-[2-[4-[2-(2-pyridyl)ethylcarbamoyl]anilino]-[1,2,4]triazolo[1,5-a]pyridin-8-yl]-3,6-dihydro-2H-pyridine-1-carboxylate]"
7,226 nM,"CCOC(=O)N1CC=C(c2cccn3nc(Nc4ccc(C(=O)NCC5CCNCC5)cc4)nc23)CC1 [Example 2-425, ethyl 4-[2-[4-(4-piperidylmethylcarbamoyl)anilino]-[1,2,4]triazolo[1,5-a]pyridin-8-yl]-3,6-dihydro-2H-pyridine-1-carboxylate]"
8,51 nM,"CCOC(=O)N1CC=C(c2cccn3nc(Nc4ccc(C(=O)N5CCC(Cc6cccnc6)C5)cc4)nc23)CC1 (stereo not shown) [Example 2-426, ethyl 4-[2-[4-[3-(3-pyridylmethyl)pyrrolidine-1-carbonyl]anilino]-[1,2,4]triazolo[1,5-a]pyridin-8-yl]-3,6-dihydro-2H-pyridine-1-carboxylate]"
9,215 nM,"CCOC(=O)N1CC=C(c2cccn3nc(Nc4ccc(C(=O)NCC5CCCNC5)cc4)nc23)CC1 (stereo not shown) [Example 2-427, ethyl 4-[2-[4-(3-piperidylmethylcarbamoyl)anilino]-[1,2,4]triazolo[1,5-a]pyridin-8-yl]-3,6-dihydro-2H-pyridine-1-carboxylate]"
10,463 nM,"CCOC(=O)N1CC=C(c2cccn3nc(Nc4ccc(C(=O)NCCC5CCCCN5)cc4)nc23)CC1 (stereo not shown) [Example 2-428, ethyl 4-[2-[4-[2-(2-piperidyl)ethylcarbamoyl]anilino]-[1,2,4]triazolo[1,5-a]pyridin-8-yl]-3,6-dihydro-2H-pyridine-1-carboxylate]"
11,27.4 nM,"CCOC(=O)N1CC=C(c2cccn3nc(Nc4ccc(C(=O)N5CCCN(c6ccncc6)CC5)cc4)nc23)CC1 [Example 2-429, ethyl 4-[2-[4-[4-(4-pyridyl)-1,4-diazepane-1-carbonyl]anilino]-[1,2,4]triazolo[1,5-a]pyridin-8-yl]-3,6-dihydro-2H-pyridine-1-carboxylate]"
12,43 nM,"CCOC(=O)N1CC=C(c2cccn3nc(Nc4ccc(C(=O)N5CC6(CN(C(C)=O)C6)C5)cc4)nc23)CC1 [Example 2-432, ethyl 4-[2-[4-(6-acetyl-2,6-diazaspiro[3.3]heptane-2-carbonyl)anilino]-[1,2,4]triazolo[1,5-a]pyridin-8-yl]-3,6-dihydro-2H-pyridine-1-carboxylate]"
13,13.2 nM,"CCOC(=O)N1CC=C(c2cccn3nc(Nc4ccc(C(=O)NC5CCN(C)C5)cc4)nc23)CC1 (stereo not shown) [Example 2-433, ethyl 4-[2-[4-[(1-methylpyrrolidin-3-yl)carbamoyl]anilino]-[1,2,4]triazolo[1,5-a]pyridin-8-yl]-3,6-dihydro-2H-pyridine-1-carboxylate]"
14,232 nM,"CCOC(=O)N1CC=C(c2cccn3nc(Nc4ccc(C(=O)N[C@H]5[C@@H]6CNC[C@@H]65)cc4)nc23)CC1 [Example 2-434, ethyl 4-[2-[4-[[(1S,5R)-3-azabicyclo[3.10]hexan-6-yl]carbamoyl]anilino]-[1,2,4]triazolo[1,5-a]pyridin-8-yl]-3,6-dihydro-2H-pyridine-1-carboxylate]"
15,33.7 nM,"CCOC(=O)N1CC=C(c2cccn3nc(Nc4ccc(C(=O)N5CC6(CCCCN6)C5)cc4)nc23)CC1 [Example 2-437, ethyl 4-[2-[4-(2,5-diazaspiro[3.5]nonane-2-carbonyl)anilino]-[1,2,4]triazolo[1,5-a]pyridin-8-yl]-3,6-dihydro-2H-pyridine-1-carboxylate]"
16,156 nM,"O=C(CCC(F)(F)F)N1CC=C(c2cccn3nc(Nc4ccc(C(=O)N5CCCC56CCNC6)cc4)nc23)CC1 (stereo not shown) [Example 2-440, 1-[4-[2-[4-(1,7-diazaspiro[4.4]nonane-1-carbonyl)anilino]-[1,2,4]triazolo[1,5-a]pyridin-8-yl]-3,6-dihydro-2H-pyridin-1-yl]-4,4,4-trifluoro-butan-1-one]"
17,82.4 nM,"CN(CCN)C(=O)c1ccc(Nc2nc3c(C4=CCN(C(=O)CCC(F)(F)F)CC4)cccn3n2)cc1 [Example 2-441, N-(2-aminoethyl)-N-methyl-4-[[8-[1-(4,4,4-trifluorobutanoyl)-3,6-dihydro-2H-pyridin-4-yl]-[1,2,4]triazolo[1,5-a]pyridin-2-yl]amino]benzamide]"
18,72.3 nM,"O=C(CCC(F)(F)F)N1CC=C(c2cccn3nc(Nc4ccc(C(=O)N5CCCC6(CCCNC6)C5)cc4)nc23)CC1 (stereo not shown) [Example 2-443, 1-[4-[2-[4-(2,8-diazaspiro[5.5]undecane-2-carbonyl)anilino]-[1,2,4]triazolo[1,5-a]pyridin-8-yl]-3,6-dihydro-2H-pyridin-1-yl]-4,4,4-trifluoro-butan-1-one]"
19,154 nM,"O=C(NCC1CCNC1)c1ccc(Nc2nc3c(C4=CCN(C(=O)CCC(F)(F)F)CC4)cccn3n2)cc1 (stereo not shown) [Example 2-444, N-(pyrrolidin-3-ylmethyl)-4-[[8-[1-(4,4,4-trifluorobutanoyl)-3,6-dihydro-2H-pyridin-4-yl]-[1,2,4]triazolo[1,5-a]pyridin-2-yl]amino]benzamide]"
20,456 nM,"O=C(NC1CCNCC1)c1ccc(Nc2nc3c(C4=CCN(C(=O)CCC(F)(F)F)CC4)cccn3n2)cc1 [Example 2-445, N-(4-piperidyl)-4-[[8-[1-(4,4,4-trifluorobutanoyl)-3,6-dihydro-2H-pyridin-4-yl]-[1,2,4]triazolo[1,5-a]pyridin-2-yl]amino]benzamide]"
21,208 nM,"NCC1CCN(C(=O)c2ccc(Nc3nc4c(C5=CCN(C(=O)CCC(F)(F)F)CC5)cccn4n3)cc2)CC1 [Example 2-446, 1-[4-[2-[4-[4-(aminomethyl)piperidine-1-carbonyl]anilino]-[1,2,4]triazolo[1,5-a]pyridin-8-yl]-3,6-dihydro-2H-pyridin-1-yl]-4,4,4-trifluoro-butan-1-one]"
22,275 nM,"NCC1CCN(C(=O)c2ccc(Nc3nc4c(C5=CCN(C(=O)CCC(F)(F)F)CC5)cccn4n3)cc2)C1 (stereo not shown) [Example 2-447, 1-[4-[2-[4-[3-(aminomethyl)pyrrolidine-1-carbonyl]anilino]-[1,2,4]triazolo[1,5-a]pyridin-8-yl]-3,6-dihydro-2H-pyridin-1-yl]-4,4,4-trifluoro-butan-1-one]"
23,120 nM,"O=C(CCC(F)(F)F)N1CC=C(c2cccn3nc(Nc4ccc(C(=O)N5CCO[C@@H]6CNC[C@H]65)cc4)nc23)CC1 [Example 2-448, 1-[4-[2-[4-[(4aR,7aR)-3,4a,5,6,7,7a-hexahydro-2H-pyrrolo[3,4-b][1,4]oxazine-4-carbonyl]anilino]-[1,2,4]triazolo[1,5-a]pyridin-8-yl]-3,6-dihydro-2H-pyridin-1-yl]-4,4,4-trifluoro-butan-1-one]"
24,355 nM,"O=C(CCC(F)(F)F)N1CC=C(c2cccn3nc(Nc4ccc(C(=O)N5C[C@H]6CN[C@H]6C5)cc4)nc23)CC1 [Example 2-449, 1-[4-[2-[4-[(1R,5R)-3,6-diazabicyclo[3.2.0]heptane-3-carbonyl]anilino]-[1,2,4]triazolo[1,5-a]pyridin-8-yl]-3,6-dihydro-2H-pyridin-1-yl]-4,4,4-trifluoro-butan-1-one]"
25,115 nM,"O=C(CCC(F)(F)F)N1CC=C(c2cccn3nc(Nc4ccc(C(=O)N5CCCCC56CCNCC6)cc4)nc23)CC1 [Example 2-450, 1-[4-[2-[4-(1,9-diazaspiro[5.5]undecane-1-carbonyl)anilino]-[1,2,4]triazolo[1,5-a]pyridin-8-yl]-3,6-dihydro-2H-pyridin-1-yl]-4,4,4-trifluoro-butan-1-one]"
26,287 nM,CN(C(=O)c1ccc(Nc2nc3c(C4=CCN(C(=O)CCC(F)(F)F)CC4)cccn3n2)cc1)C1CNC1 [Example 2-451]
27,134 nM,"NCC12CC(CN1C(=O)c1ccc(Nc3nc4c(C5=CCN(C(=O)CCC(F)(F)F)CC5)cccn4n3)cc1)C2 [Example 2-452, 1-[4-[2-[4-[4-(aminomethyl)-3-azabicyclo[2.1.1]hexane-3-carbonyl]anilino]-[1,2,4]triazolo[1,5-a]pyridin-8-yl]-3,6-dihydro-2H-pyridin-1-yl]-4,4,4-trifluoro-butan-1-one]"
28,171 nM,"O=C(CCC(F)(F)F)N1CC=C(c2cccn3nc(Nc4ccc(C(=O)N5CCOC6CCNCC65)cc4)nc23)CC1 (stereo not shown) [Example 2-453, 1-[4-[2-[4-(2,3,4a,5,6,7,8,8a-octahydropyrido[4,3-b][1,4]oxazine-4-carbonyl)anilino]-[1,2,4]triazolo[1,5-a]pyridin-8-yl]-3,6-dihydro-2H-pyridin-1-yl]-4,4,4-trifluoro-butan-1one]"
